Measurements as given in patent US11542304B2, “Multimeric bicyclic peptide ligands” (BicycleTx Limited, priority 2018, dated 2023).
Starred links: 1 amine or outer side, 2 acyl side, 3 side chain; linkers in the order of their positions; H or OH if unused. Positions of bridges follow the written chain, without caps; N, C: chain ends. Non-standard residues stand in square brackets, D forms with d. Chains are numbered I, II in the order given. X1 = O=C(CCOCCN(CCOCCC(=O)NCCOCCOCCOCCOCCOCCOCCOCCOCCOCCOCCn1cc(CCC(=O)[*:2])nn1)CCOCCC(=O)NCCOCCOCCOCCOCCOCCOCCOCCOCCOCCOCCn1cc(CCC(=O)[*:3])nn1)NCCOCCOCCOCCOCCOCCOCCOCCOCCOCCOCCn1cc(CCC(=O)[*:1])nn1; TATA = O=C(CC[*:1])N1CN(C(=O)CC[*:2])CN(C(=O)CC[*:3])C1; Nle = CCCC[C@H](N)C(=O)O

Legend:
[1] = clinical testing, cited from earlier work
[2] = Pharmacokinetics of Bicycle multimers in CD-1 mice; details: 5 mg/kg IV, male CD-1 mice; FIGS. 5A and 5B
Method: Male CD-1 mice were dosed with 5 mg/kg of each Bicycle multimer formulated in 25 mM Histidine HCl, 10% sucrose pH 7 via tail vein injection. Serial bleeding (about 80 μL blood/time point) was performed via submandibular or saphenous vein at each time point. All blood samples were immediately transferred into prechilled microcentrifuge tubes containing 2 μL K2-EDTA (0.5M) as anti-coagulant and placed on wet ice. Blood samples were immediately processed for plasma by centrifugation at approximately 4° C., 3000 g. The precipitant including internal standard was immediately added into the plasma, mixed well and centrifuged at 12,000 rpm, 4° C. for 10 minutes. The supernatant was transferred into pre-labeled polypropylene microcentrifuge tubes, and then quick-frozen over dry ice. The samples were stored at 70° C. or below as needed until analysis. 7.5 μL of the supernatant samples were directly injected for LC-MS/MS analysis using an Orbitrap Q Exactive in positive ion mode to determine the concentrations of Bicycle multimer. Plasma concentration versus time data were analyzed by non-compartmental approaches using the Phoenix WinNonlin 6.3 software program. C0, Cl, Vdss, T1/2, AUC(0-last), AUC(0-inf), MRT(0-last), MRT(0-inf) and graphs of plasma concentration versus time profile were reported.

CD137 = CD137 (Homo sapiens, UniProt Q07011); assay: CD137 Promega reporter cell activity assay (NF-κB luciferase in Jurkat cells); details: for Average Relative Fold Induction relative to CD137L: Average fold induction for CD137L = 4.0; for Average Fold EC50 Improvement relative to CD137L: Average EC50 for CD137L = 14.2 nM
Sequence of CD137 (Q07011 24-255): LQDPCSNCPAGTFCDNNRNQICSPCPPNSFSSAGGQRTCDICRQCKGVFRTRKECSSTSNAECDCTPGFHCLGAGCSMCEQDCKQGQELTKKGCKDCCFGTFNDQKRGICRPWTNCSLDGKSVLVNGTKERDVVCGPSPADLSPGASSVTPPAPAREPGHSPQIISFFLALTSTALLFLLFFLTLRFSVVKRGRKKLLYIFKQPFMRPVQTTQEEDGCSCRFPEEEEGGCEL

Molecule	single agent activity [1]	Average Relative Fold Induction relative to CD137L (CD137)	Average Fold EC50 Improvement relative to CD137L (CD137)	also measured
urelumab	single agent, partial responses in melanoma	–	–	doses at which hepatoxicity was observed [1]: ≥ 1 mg/kg
I: Ac-ACIEKGQYCFADPY[Nle]CA-NH2 / II: Ac-ACIEKGQYCFADPY[Nle]CA-NH2 / III: Ac-ACIEKGQYCFADPY[Nle]CA-NH2 (linker I:2-I:9-I:16, II:2-II:9-II:16, III:2-III:9-III:16 via TATA; linker I:5-II:5-III:5 via X1) [BCY7835]	–	1.04	–	systemic elimination (plasma concentration after IV dosing) [2]: retain the property of rapid systemic elimination
utomilumab	little or no single agent activity	–	–	dose up to which hepatotoxicity was not observed ([1]; solid tumors): up to 5 mg/kg
CC[C@H](C)[C@@H]1NC(=O)[C@@H](NC(=O)[C@H](C)NC(C)=O)CSCCC(=O)N2CN3CN(C2)C(=O)CCSC[C@H](NC(=O)[C@H](Cc2ccc(O)cc2)NC(=O)[C@H](CCC(N)=O)NC(=O)CNC(=O)[C@H](CCC(=O)O)NC(=O)[C@H](CCC(=O)O)NC1=O)C(=O)N[C@@H](Cc1ccccc1)C(=O)N[C@@H](C)C(=O)N[C@@H](CC(=O)O)C(=O)N1CCC[C@H]1C(=O)N[C@@H](Cc1ccc(O)cc1)C(=O)N[C@@H](CCCCNC(=O)OCC1C2CCc4nnn(CCOCCOCCOCCOCCOCCOCCOCCOCCOCCOCCOCCOCCOCCOCCOCCOCCOCCOCCOCCOCCOCCOCCOCCNC(=O)CCOCCN(CCOCCC(=O)NCCOCCOCCOCCOCCOCCOCCOCCOCCOCCOCCOCCOCCOCCOCCOCCOCCOCCOCCOCCOCCOCCOCCOCCn5nnc6c5CCC5C(CC6)C5COC(=O)NCCCC[C@@H]5NC(=O)[C@H](Cc6ccc(O)cc6)NC(=O)[C@@H]6CCCN6C(=O)[C@H](CC(=O)O)NC(=O)[C@H](C)NC(=O)[C@H](Cc6ccccc6)NC(=O)[C@@H]6CSCCC(=O)N7CN(CN(C7)C(=O)CCSC[C@@H](C(=O)N[C@@H](C)C(N)=O)NC5=O)C(=O)CCSC[C@H](NC(=O)[C@H](C)NC(C)=O)C(=O)N[C@@H]([C@@H](C)CC)C(=O)N[C@@H](CCC(=O)O)C(=O)N[C@@H](CCC(=O)O)C(=O)NCC(=O)N[C@@H](CCC(N)=O)C(=O)N[C@@H](Cc5ccc(O)cc5)C(=O)N6)CCOCCC(=O)NCCOCCOCCOCCOCCOCCOCCOCCOCCOCCOCCOCCOCCOCCOCCOCCOCCOCCOCCOCCOCCOCCOCCOCCn5nnc6c5CCC5C(CC6)C5COC(=O)NCCCC[C@@H]5NC(=O)[C@H](Cc6ccc(O)cc6)NC(=O)[C@@H]6CCCN6C(=O)[C@H](CC(=O)O)NC(=O)[C@H](C)NC(=O)[C@H](Cc6ccccc6)NC(=O)[C@@H]6CSCCC(=O)N7CN(CN(C7)C(=O)CCSC[C@@H](C(=O)N[C@@H](C)C(N)=O)NC5=O)C(=O)CCSC[C@H](NC(=O)[C@H](C)NC(C)=O)C(=O)N[C@@H]([C@@H](C)CC)C(=O)N[C@@H](CCC(=O)O)C(=O)N[C@@H](CCC(=O)O)C(=O)NCC(=O)N[C@@H](CCC(N)=O)C(=O)N[C@@H](Cc5ccc(O)cc5)C(=O)N6)c4CCC21)C(=O)N[C@H](C(=O)N[C@@H](C)C(N)=O)CSCCC3=O (stereo partly drawn) [BCY8107]	–	0.64	64.33	–
CCCC[C@@H]1NC(=O)[C@H](Cc2ccc(O)cc2)NC(=O)[C@@H]2CCCN2C(=O)[C@H](CC(=O)O)NC(=O)[C@H](C)NC(=O)[C@H](Cc2ccccc2)NC(=O)[C@@H]2CSCCC(=O)N3CN(CN(C3)C(=O)CCSC[C@@H](C(=O)N[C@@H](C)C(N)=O)NC1=O)C(=O)CCSC[C@H](NC(=O)[C@H](C)NC(C)=O)C(=O)N[C@@H]([C@@H](C)CC)C(=O)N[C@@H](CCC(=O)O)C(=O)N[C@@H](CCC(=O)O)C(=O)NCC(=O)N[C@@H](CCCCNC(=O)CCc1cn(CCOCCOCCOCCOCCOCCOCCOCCOCCOCCOCCNC(=O)CCOCC(COCCC(=O)NCCOCCOCCOCCOCCOCCOCCOCCOCCOCCOCCn3cc(CCC(=O)NCCCC[C@@H]4NC(=O)CNC(=O)[C@H](CCC(=O)O)NC(=O)[C@H](CCC(=O)O)NC(=O)[C@H]([C@@H](C)CC)NC(=O)[C@@H](NC(=O)[C@H](C)NC(C)=O)CSCCC(=O)N5CN6CN(C5)C(=O)CCSC[C@H](NC(=O)[C@H](Cc5ccc(O)cc5)NC4=O)C(=O)N[C@@H](Cc4ccccc4)C(=O)N[C@@H](C)C(=O)N[C@@H](CC(=O)O)C(=O)N4CCC[C@H]4C(=O)N[C@@H](Cc4ccc(O)cc4)C(=O)N[C@@H](CCCC)C(=O)N[C@H](C(=O)N[C@@H](C)C(N)=O)CSCCC6=O)nn3)(COCCC(=O)NCCOCCOCCOCCOCCOCCOCCOCCOCCOCCOCCn3cc(CCC(=O)NCCCC[C@@H]4NC(=O)CNC(=O)[C@H](CCC(=O)O)NC(=O)[C@H](CCC(=O)O)NC(=O)[C@H]([C@@H](C)CC)NC(=O)[C@@H](NC(=O)[C@H](C)NC(C)=O)CSCCC(=O)N5CN6CN(C5)C(=O)CCSC[C@H](NC(=O)[C@H](Cc5ccc(O)cc5)NC4=O)C(=O)N[C@@H](Cc4ccccc4)C(=O)N[C@@H](C)C(=O)N[C@@H](CC(=O)O)C(=O)N4CCC[C@H]4C(=O)N[C@@H](Cc4ccc(O)cc4)C(=O)N[C@@H](CCCC)C(=O)N[C@H](C(=O)N[C@@H](C)C(N)=O)CSCCC6=O)nn3)COCCC(=O)NCCOCCOCCOCCOCCOCCOCCOCCOCCOCCOCCn3cc(CCC(=O)NCCCC[C@@H]4NC(=O)CNC(=O)[C@H](CCC(=O)O)NC(=O)[C@H](CCC(=O)O)NC(=O)[C@H]([C@@H](C)CC)NC(=O)[C@@H](NC(=O)[C@H](C)NC(C)=O)CSCCC(=O)N5CN6CN(C5)C(=O)CCSC[C@H](NC(=O)[C@H](Cc5ccc(O)cc5)NC4=O)C(=O)N[C@@H](Cc4ccccc4)C(=O)N[C@@H](C)C(=O)N[C@@H](CC(=O)O)C(=O)N4CCC[C@H]4C(=O)N[C@@H](Cc4ccc(O)cc4)C(=O)N[C@@H](CCCC)C(=O)N[C@H](C(=O)N[C@@H](C)C(N)=O)CSCCC6=O)nn3)nn1)C(=O)N[C@@H](Cc1ccc(O)cc1)C(=O)N2 [BCY7845]	–	1.54	17.78	CD137 agonism / activation in reporter cells (in words) (CD137; FIGS. 1 to 3 and 15): high levels of CD137 agonism; Average fold induction (CD137; reference substance of Table 4A / 4B): **Average fold induction for BCY7845 = 6.3
